Experimental data as given in patent US8802711B2, “TRPV1 antagonists” (AbbVie Inc., priority 2011, dated 2014).

Assays:
Sprague-Dawley rats [1] = assay: Rat acute capsaicin-induced flinching behavior; assay type: in vivo; settings: percent reduction in number of flinching behaviors
Source text: (§1) Adult male Sprague-Dawley rats (250-300 g body weight, Charles River Laboratories, Portage, Mich.) were used. Animal handling and experimental protocols were approved by the Institutional Animal Care and Use Committee (IACUC) at Abbott Laboratories. For all surgical procedures, animals were maintained under isoflurane anesthesia (4-5% to induce, 1-3% to maintain), and the incision sites were sterilized using a 10% povidone-iodine solution prior to and after surgeries.
Rats were placed in individual observation cages. […] One hour after administration of the test compound, 2.5 μg of capsaicin in a 10 μL solution of 10% ethanol/90% hydroxypropyl-β-cyclodextrin was injected subcutaneously into the dorsal aspect of the right hind paw. The observation cage was then suspended above mirrors in order to facilitate observation. […] The number of flinching behaviors of the injured paw was recorded during the five minute observation period (Gilchrist, H. D.; Allard, B. L.; Simone, D. A.; Enhanced withdrawal responses to heat and mechanical stimuli following intraplantar injection of capsaicin in rats. Pain, 1996, 67, 179-188). The percent reduction in the number of flinching behaviors produced with oral administration of representative compounds of the present invention relative to control-treated animals (% effect) is reported in Table 3.

Sprague-Dawley rats [2] = assay: Chronic constriction injury model of neuropathic pain; assay type: in vivo, rat; settings: 100 μmol/kg p.o., 1 hour after dosing
Source text: as §1
A model of chronic constriction injury-induced (CCI) neuropathic pain was produced in rats by following the method of Bennett and Xie (Pain, 1988, 33:87). Following sterilization and anesthetic procedures, a 1.5 cm incision was made dorsal to the pelvis, and the biceps femoris and gluteous superficialis (right side) were separated. The right common sciatic nerve was exposed/isolated, and loosely ligated by 4 ligatures of chromic gut (5-0) with <1 mm spacing using hemostats and forceps. […]
Tactile allodynia was measured using calibrated von Frey filaments (Stoelting, Wood Dale, Ill.) as described in Chaplan, S. R., F. W. Bach, J. M. Pogrel, J. M. Chung and T. L. Yaksh, Quantitative assessment of tactile allodynia in the rat paw, J. Neurosci. […]

Question: Cc1cc2c(NC(=O)N[C@@H]3CC[C@H](c4ccccc4)C3)c(F)ccc2cn1 [Example 6, 1-(6-fluoro-3-methylisoquinolin-5-yl)-3-[(1R,3S)-3-phenylcyclopentyl]urea] was tested. Which “% effect” value (Sprague-Dawley rats [1]; 100 μmol/kg p.o.) did it give?
Answer: 88%

Question: With O=C(Nc1cccc2[nH]ncc12)N[C@H]1CC[C@H](c2ccccc2)C1 [Example 14, 1-(1H-indazol-4-yl)-3-[(1S,3S)-3-phenylcyclopentyl]urea] as the molecule, how does the “% effect” value (Sprague-Dawley rats [1]; 10 μmol/kg p.o.) read?
Answer: 76%

Question: What about the “% effect” value (Sprague-Dawley rats [2]) of the same molecule?
Answer: 53%

Question: Which “% effect” value (Sprague-Dawley rats [1]; 10 μmol/kg p.o.) does the source give for O=C(Nc1cccc2[nH]ncc12)N[C@H]1CC[C@@H](c2ccccc2)C1 [Example 28, 1-(1H-indazol-4-yl)-3-[(1S,3R)-3-phenylcyclopentyl]urea] here?
Answer: 60%

Question: And the “% effect” value (Sprague-Dawley rats [2])?
Answer: 54%
